Measurements from patent US20200339544A1 (JOINT STOCK COMPANY "BIOCAD", priority 2017, published 2020).
Where two headings read alike, the source gives them in different places. Marks after values point to notes of the source that are not given here.

Key:
WT EGFR (Wild-Type EGFR) = biological target: T1, WT EGFR (Wild-Type EGFR) (Homo sapiens, UniProt P00533); assay: Inhibition of WT EGFR kinase activity (ADP-Glo); format: biochemical
T1 construct: purchased SignalChem
How it was run: (§1)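 Recombinant WT or double-mutant EGFR was incubated with a solution of 0.5 mg/mL peptide substrate and 50 μM ATP for 180 minutes at 37° C. Kinase activity was detected by ADP-Glo luminescence. IC50 values came from a four-parameter logistic fit.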

[1] = biological target: T2, DM EGFR (DoubleMutantEGFR, L828R/T790M) (Homo sapiens, UniProt P00533, L858R/T790M); assay: Inhibition of DM EGFR kinase activity (ADP-Glo); format: biochemical; conditions: for IC50: inhibition of kinase activity, EGFR DM (L828R/T790M); for SI, IC50(WT)/IC50(DM): selectivity index, kinase EGFR WT vs EGFR DM
T2 construct: purchased SignalChem
How it was run: as §1

[2] = test system: A549 (lung adenocarcinoma, WT); assay: Antiproliferative activity on A549 cells (Alamar Blue); format: cell-based; conditions: Homo sapiens, antiproliferative test
How it was run: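 Cells seeded at 5*10^3/well in RPMI-1640 with 2% FBS, attached 16-18 h at 37° C, then exposed to compounds (≤1% DMSO) for 72 h. Alamar Blue added for 3-5 h; fluorescence read at 540/590 nm. IC50 from four-parameter logistic fit.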

[3] = test system: HCC827 (lung adenocarcinoma, SM, exon19delE746-A750); assay: Antiproliferative activity on HCC827 cells (Alamar Blue); format: cell-based; conditions: Homo sapiens, antiproliferative test
Procedure: Antiproliferative activity of EGFR inhibitors (Tables 15 and 16) was measured in cell-based bioassay on continuous epithelial cell cultures: A549 (lung adenocarcinoma, ATCC® CRM-CCL-185™—WT), HCC827 (lung adenocarcinoma, ATCC® CRL-2868™—SM (SingleMutantEGFR, exon19delE746-A750)) and H1975 (lung adenocarcinoma, ATCC® CRL-5908™—DM (DoubleMutantEGFR, L828R/T790M)) using cell viability reagent Alamar Blue (ThermoFisher, # DAL1100). Cells were cultured in 10% FBS-supplemented (Gibco, #16140071) RPMI-1640 (PanEco, S330p) for at least 1 passage after thawing, washed with PBS and passaged in 96-well culture plates (3599, Corning) with RPMI-1640 growth medium supplemented with 2% FBS in an amount of 5*10^3 cells/well for A549, 10*10^3 cells/well for HCC827 and 15*10^3 cells/well for H1975 in 100 μL, and incubated at 37° C. in an incubator (Thermo Forma, USA) under 5% of CO2 for 16-18 h for cell attachment.
The test compounds were dissolved in DMSO in the selected range of concentrations and transferred to RPMI-1640 medium (PanEco, S330p) supplemented with 2% FBS. After adding 50 μl of the prepared dilutions to the cells, the incubation mixture contained the final concentrations of the test substances and no more than 1% DMSO. The plates were Incubated at 37° C. for 72 h. After incubation, 15 μl of Alamar Blue vital dye (ThermoFisher, # DAL1100) was added to each well. The plates were shaken on an orbital shaker (Biosan, Latvia) and further incubated for 3-5 h in a CO2 incubator (Thermo Forma, USA). Number of living cells was estimated using a plate spectrophotometer Infinite M200Pro, (Tecan, Switzerland) measuring fluorescent signal at the excitation wavelength (λEx) of 540 nm and emission wavelength (λEm) of 590 nm.
IC50 was calculated using Magellan 7.2 software (Tecan, Switzerland) approximating experimental points by four-parameter logistic model with the optimization by Levenberg-Marquardt.

[4] = test system: H1975 (lung adenocarcinoma, DM, L828R/T790M); assay: Antiproliferative activity on H1975 cells (Alamar Blue); format: cell-based; conditions: for IC50: Homo sapiens, NCI-H1975, H1975 cells; for SI IC50(A549)/IC50(DM): selectivity index, A549 vs H1975 cells
How it was run: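 H1975 cells (15*10^3/well) attached 16-18 h in RPMI-1640 with 2% FBS, then exposed to compounds (≤1% DMSO final) for 72 h at 37 °C. Viability by Alamar Blue fluorescence (Ex 540/Em 590 nm) after 3-5 h; IC50 from four-parameter logistic fit.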

[5] = General cytotoxicity on HepG2 cells; format: cell-based; conditions: human; general cytotoxicity, HepG2 cells, 72 hours, average of several tests
How it was run: (§2)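 HepG2 cells seeded at 2*10^4 cells per well and compounds added in DMEM with 2% FBS for 72 h at 37 °C. Viability read with Alamar Blue and CC50 derived as for IC50. Therapeutic index taken as HepG2 CC50 over H1975 IC50.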

HepG2 cells = assay: General cytotoxicity on HepG2 cells; format: cell-based; conditions: therapeutic index, CC50 HepG2 / IC50 H1975
How it was run: as §2

[6] = Chemical stability in human blood plasma; format: in vitro ADME; conditions: pooled human blood plasma; 10 μm; 4 hours at 37° C.; substance amount remaining
How it was run: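 Pooled plasma from ten healthy donors was spiked to 10 μM from a 10 mM DMSO stock and held 4 h at 37 °C. After acetonitrile protein precipitation, HPLC peak areas before and after incubation gave the percentage of compound remaining.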

[7] = Enzyme stability in human liver S9 fractions; format: in vitro ADME; conditions: 0.5 mg/mL pooled human liver S9 fractions; 10 μM compound; 37° C.; pH 7.4; read-out: Stability in liver S9 fractions, Clint
Procedure: Determination of enzyme stability.
Measuring of candidate enzyme stability enabled estimation of the stability of the compounds towards the action of liver enzymes.
Enzyme degradation rate was measured by incubating the reaction mixture in a dry block thermostat at 37° C., said reaction mixture comprising 0.5 mg/mL of pooled human liver S9 fractions (XenoTech, USA, cat # H0610), 10 μM compound, 2 mM β-nicotinamide adenine dinucleotide (Carbosynth, UK, cat # NN10871) and 4 mM magnesium chloride in 0.1 M sodium-phosphate buffer, pH=7.4. The reaction was quenched with acetonitrile (100 μL of acetonitrile/100 μL of the reaction mixture). After quenching, the samples were centrifuged at 10000 rpm for 10 minutes. Supernatant fluid was tested by chromatographic technique using Agilent1200 (Agilent, USA). We used gradient elution (1 mL/min flow rate). A graph of the logarithm of substance's peak area as a function of time was made. The dependent factor of the line corresponded to the elimination rate constant K based on which the drug's half-life T½ and intrinsic clearance CLint were calculated:
Based on the data obtained, candidate enzyme stability in human liver S9 fractions was determined (see Table 11).

[8] = average values obtained in several tests, Table 16, read-out: H1975 (DM) IC50
[9] = antiproliferative test, Table 15, read-out: IC50 H1975 (DM)

SMILES | IC50 (WT EGFR (Wild-Type EGFR)) [nM] | IC50 [1] [nM] | SI, IC50(WT)/IC50(DM) [1] | IC50 [2] [nM] | IC50 [3] [nM] | IC50 [4, 8] [nM] | IC50 [4, 9] [nM] | SI IC50(A549)/IC50(DM) [4] | CC50 at 72 h [5] [nM] | TI, CC50/IC50 (HepG2 cells) | Stability in blood plasma, % [6] [%] | Intrinsic clearance in human liver S9 fractions at 10 µM [7] [µL/min/mg]
C=CC(=O)Nc1cc(Nc2cc(C(=O)c3ccc(OCC(C)C)cc3)ccn2)c(OC)cc1N(C)CCN(C)C [EGFR_3365_77, N-(2-((2-(dimethylamino)ethyl)(methyl)amino)-5-((4-(4-isobutoxybenzoyl)pyridin-2-yl)amino)-4-methoxyphenyl) acrylamide] | 49.9 | 4.97 | 10.04 | 2170 | 23.5 | 249 | 249 | 9 | 8340 | 33 | – | –
C=CC(=O)Nc1cc(Nc2nccc(C(=O)c3ccc(N4CCC(N(C)C)CC4)cc3)n2)c(OC)cc1N(C)CCN(C)C [EGFR_3365_121a, N-(2-((2-(dimethylamino)ethyl)(methyl)amino)-5-((4-(4-(4-(dimethylamino)piperidin-1-yl)benzoyl)pyrimidin-2-yl)amino)-4-methoxyphenyl) acrylamide] | 29.6 | 0.96 | 30.92 | 3270 | 13.5 | 2.55 | 2.55 | 1284 | 11800 | 4649 | 99.0 | 2.1
C=CC(=O)Nc1cc(Nc2nccc(C(=O)c3ccc(N4CCN(C)CC4)cc3OC)n2)c(OC)cc1N(C)CCN(C)C [EGFR_3365_120, N-(2-((2-(dimethylamino)ethyl)(methyl)amino)-4-methoxy-5-((4-(2-methoxy-4-(4-methylpiperazin-1-yl)benzoyl)pyrimidin-2-yl)amino)phenyl)acrylamide] | 30.9 | 2.37 | 13.01 | 16400 | 5.19 | 4.5 | 4.5 | 3644 | 29300 | 6514 | 100.0 | 3.8
C=CC(=O)Nc1cc(Nc2nccc(C(=O)c3ccc(OC4CCCCC4)cc3)n2)c(OC)cc1N(C)CCN(C)C [EGFR_3365_67, N-(5-((4-(4-(cyclohexyloxy)benzoyl)pyrimidin-2-yl)amino)-2-((2-(dimethylamino)ethyl)(methyl)amino)-4-methoxyphenyl)acrylamide] | 97.5 | 10.5 | 9.27 | 2470 | 26.3 | 221 | 221 | 11 | 9460 | 43 | 92.8 | 18.7
C=CC(=O)Nc1cc(Nc2cc(C(=O)c3ccc(N(CC)CC)cc3)ccn2)c(OC)cc1N(C)CCN(C)C | 145 | 5.53 | 26.20 | 4420 | 13.9 | 34.2 | 34.2 | 129 | 7820 | 229 | – | –
C=CC(=O)Nc1cc(Nc2nccc(C(=O)c3ccc(N4CC[C@H](O)C4)cc3)n2)c(OC)cc1N(C)CCN(C)C.O=CO [EGFR_3365_112, (S)-N-(2-((2-(dimethylamino)ethyl)(methyl)amino)-5-((4-(4-(3-hydroxypyrrolidin-1-yl)benzoyl)pyrimidin-2-yl)amino)-4-methoxyphenyl)acrylamide formate] | 23.5 | 2.05 | 11.48 | 37300 | – | 15.3 | 15.3 | 2443 | > 50000 | >3267 | 96.9 | 6.8
C=CC(=O)Nc1cc(Nc2nccc(C(=O)c3ccc(NCCO)cc3)n2)c(OC)cc1N(C)CCN(C)C.O=CO [EGFR_3365_106, N-(2-((2-(dimethylamino)ethyl)(methyl)amino)-5-((4-(4-((2-hydroxyethyl)amino)benzoyl)pyrimidin-2-yl)amino)-4-methoxyphenyl)acrylamide formate] | 108 | 5.5 | 19.68 | > 20000 | – | 33.3 | 33.3 | >601 | > 50000 | >1501** | 95.2 | 6.7
C=CC(=O)Nc1cc(Nc2nccc(C(=O)c3ccc(N4CC[C@@H](OC)C4)cc3)n2)c(OC)cc1N(C)CCN(C)C [EGFR_3365_115, (R)-N-(2-((2-(dimethylamino)ethyl)(methyl)amino)-4-methoxy-5-((4-(4-(3-methoxypyrrolidin-1-yl)benzoyl)pyrimidin-2-yl)amino)phenyl)acrylamide] | 126 | 1.99 | 63.44 | 12800 | – | 19.1 | 19.1 | 670 | 22000 | 1154 | 94.6 | 19.8
C=CC(=O)Nc1cc(Nc2nccc(C(=O)c3c(OC)cc(OC)cc3OC)n2)c(OC)cc1N(C)CCN(C)C [EGFR_3365_124, N-(2-((2-(dimethylamino)ethyl)(methyl)amino)-4-methoxy-5-((4-(2,4,6-trimethoxybenzoyl)pyrimidin-2-yl)amino)phenyl)acrylamide] | 76.3 | 3.57 | 21.41 | 19700 | – | 66.3 | 66.3 | 298 | > 50000 | >754 | 90.7 | 22.2
